Results published in patent publication US10159725B2, “Composition of tumor-associated peptides and related anti-cancer vaccine for the treatment of gastric cancer and other cancers” (priority 2010, dated 2018).

How the values were obtained:
CD8+ T cells = experiment: In vitro priming of CD8+ T cells with pMHC/anti-CD28 coated beads, multimer readout (in vitro immunogenicity); assay type: cell-based, human; conditions: healthy HLA-A*24 donors, three stimulations; for Positive wells/wells tested [%]: at least 24 wells evaluable per peptide; for Positive donors/donors tested [%]: at least two donors evaluable per peptide
Protocol: In order to perform in vitro stimulations by artificial antigen presenting cells (aAPC) loaded with peptide-MHC complex (pMHC) and anti-CD28 antibody, we first isolated CD8 T cells from fresh HLA-A*24 leukapheresis products of healthy donors obtained from the Blood Bank Tuebingen.
Isolation of CD8+ lymphocytes was performed by positive selection using CD8 MicroBeads (Miltenyi Biotec, Bergisch-Gladbach, Germany).
Stimulations were initiated in 96-well plates by co-incubating 1×10^6 CD8+ T cells with 2×10^5 washed coated beads in 200 μl TCM supplemented with 5 ng/ml IL-12 (PromoCell) for 3-4 days at 37° C. Half of the medium was then exchanged by fresh TCM supplemented with 80 U/ml IL-2 and incubating was continued for 3-4 days at 37° C. This stimulation cycle was performed for a total of three times. […] For analysis, a BD LSRII SORP cytometer equipped with appropriate lasers and filters was used. Peptide specific cells were calculated as percentage of total CD8+ cells. Evaluation of multimeric analysis was done using the FLOWJO software (Tree Star, Oregon, USA). In vitro priming of specific multimer+ CD8+ lymphocytes was detected by appropriate gating and by comparing to negative control stimulations.

[1] = tested on: anti-survivin T-cell response; experiment: T-cell response in vaccinated prostate carcinoma patients (IFN-g ELISPOT, +/-ICS); assay type: in vivo, human
[2] = tested on: HLA-DR broad antigens (HLA-DR1 to DR7); experiment: ProImmune REVEAL MHC:peptide in vitro binding assay; parameters: species or system human; conditions: relative to pass/fail control
Protocol: The ProImmune REVEAL™ technology employs in vitro HLA-DR assembly assays to determine the on-rates for the MHC:peptide complex as one major determinant of the binding constant of individual peptides. The assay was performed by ProImmune (Oxford, UK). At a fixed time point, the amount of intact MHC:peptide complexes is measured and compared with the amount for a pass/fail control (relative weak binder). A strong, promiscuous HLA-DR binder is included as positive control. Values indicate amount of binding for the individual peptides and HLA-DR molecules relative to the pass/fail control.
In this assay, binding was compared to that of a pass/fail control binder, and to a positive control peptide for each HLA-DR antigen.

| Sequence | Positive wells/wells tested [%] (CD8+ T cells) | Positive donors/donors tested [%] (CD8+ T cells) | patients with induction of an anti-survivin T-cell response upon vaccination ([1]; among the 16 reacting patients of 19) | patients who reacted to the peptide (IFN-g ELISPOT, +/-ICS) ([1]; of the 19 patients vaccinated) | in vitro binding to HLA-DR (in words) [2] |
| --- | --- | --- | --- | --- | --- |
| AYLVYTDRL (listed as Homo sapiens) [PPAP2C-001] | 54% | 100% | – | – | – |
| FYISPVNKL (listed as Homo sapiens) [AVL9-001] | 50% | 100% | – | – | – |
| HYKPTPLYF (listed as Homo sapiens) [SMC4-001] | 9% | 75% | – | – | – |
| LYQILQGIVF (listed as Homo sapiens) [CDC2-001] | 28% | 88% | – | – | – |
| NYLLYVSNF (listed as Homo sapiens) [MST1R-001] | 14% | 50% | – | – | – |
| NYLPFIMEL (listed as Homo sapiens) [UCHL5-001] | 14% | 75% | – | – | – |
| RFLSGIINF (listed as Homo sapiens) [NUF2-002] | 4% | 50% | – | – | – |
| SYIDVLPEF (listed as Homo sapiens) [MET-006] | 22% | 63% | – | – | – |
| SYIIDPLNL (listed as Homo sapiens) [PROM1-001] | 26% | 83% | – | – | – |
| SYNPLWLRI (listed as Homo sapiens) [ASPM-002] | 31% | 63% | – | – | – |
| TLGEFLKLDRERAKN (listed as Homo sapiens) [IMA-BIR-002] | – | – | 12 patients | 16 patients | promiscuous binding of IMA-BIR-002 to HLA-DR1, 3, 4 and 11 |
| TYGNLLDYL (listed as Homo sapiens) [ABL1-001] | 13% | 50% | – | – | – |
| VWSDVTPLIF (VWSDVTPLTF; listed as Homo sapiens) [MMP11-001] | 11% | 33% | – | – | – |
| VYGIRLEHF (listed as Homo sapiens) [NUF2-001] | 25% | 100% | – | – | – |
| VYIEKNDKL (listed as Homo sapiens) [ERBB3-001] | 15% | 83% | – | – | – |
| YYNAAGFNKL (listed as Homo sapiens) [UQCRB-001] | 38% | 100% | – | – | – |
